Assay results from patent US20260297081A1, “COMPOUNDS AND METHODS OF TREATING CANCERS” (Cullgen Inc., priority 2023, published 2026).

Each molecule was assayed on MCF7 cells (assay: Anti-proliferation (viability) of MCF7 cells (Table 7, FIG. 2B)). Conditions: Homo sapiens, MCF7, MCF7 cells, 3-6 days, 10-point serial dilution; read-out: GI IC50 in MCF-7.
Assay type: cell-based

IC50	Structure (SMILES)
> 100 nM	CC(=O)c1c(C)c2cnc(Nc3ccc(N4CCC(N5CCC(C(=O)N6CCC(Nc7nc(NC(C)C)ccc7C(=O)Nc7ccc(N(C)C)nn7)CC6)C5)CC4)cn3)nc2n(C2CCCC2)c1=O (centres unmarked) [CPD-396, 2-((1-(1-(1-(6-((6-acetyl-8-cyclopentyl-5-methyl-7-oxo-7,8-dihydropyrido[2,3-d]pyrimidin-2-yl)amino)pyridin-3-yl)piperidin-4-yl)pyrrolidine-3-carbonyl)piperidin-4-yl)amino)-N-(6-(dimethylamino)pyridazin-3-yl)-6-(isopropylamino)nicotinamide]
< 50 nM	CC(=O)c1c(C)c2cnc(Nc3ccc(N4CCC(N5CCC(C(=O)NC6CC7(C6)CC(Nc6nc(NC(C)C)ccc6C(=O)Nc6ccc(N(C)C)nn6)C7)C5)CC4)cn3)nc2n(C2CCCC2)c1=O (centres unmarked) [CPD-397, 2-((6-(1-(1-(6-((6-acetyl-8-cyclopentyl-5-methyl-7-oxo-7,8-dihydropyrido[2,3-d]pyrimidin-2-yl)amino)pyridin-3-yl)piperidin-4-yl)pyrrolidine-3-carboxamido)spiro[3.3]heptan-2-yl)amino)-N-(6-(dimethylamino)pyridazin-3-yl)-6-(isopropylamino)nicotinamide]
50 to 100 nM	CC(=O)c1c(C)c2cnc(Nc3ccc(N4CCC(N5CCC(C(=O)N6CC7(CC(Nc8nc(NC(C)C)ccc8C(=O)Nc8ccc(N(C)C)nn8)C7)C6)C5)CC4)cn3)nc2n(C2CCCC2)c1=O (centres unmarked) [CPD-398, 2-((2-(1-(1-(6-((6-acetyl-8-cyclopentyl-5-methyl-7-oxo-7,8-dihydropyrido[2,3-d]pyrimidin-2-yl)amino)pyridin-3-yl)piperidin-4-yl)pyrrolidine-3-carbonyl)-2-azaspiro[3.3]heptan-6-yl)amino)-N-(6-(dimethylamino)pyridazin-3-yl)-6-(isopropylamino)nicotinamide]
50 to 100 nM	CC(=O)c1c(C)c2cnc(Nc3ccc(N4CCN(C5CCN(C(=O)C6CC7(CC(Nc8nc(NC(C)C)ccc8C(=O)Nc8ccc(N(C)C)nn8)C7)C6)C5)CC4)cn3)nc2n(C2CCCC2)c1=O (centres unmarked) [CPD-400, 2-((6-(3-(4-(6-((6-acetyl-8-cyclopentyl-5-methyl-7-oxo-7,8-dihydropyrido[2,3-d]pyrimidin-2-yl)amino)pyridin-3-yl)piperazin-1-yl)pyrrolidine-1-carbonyl)spiro[3.3]heptan-2-yl)amino)-N-(6-(dimethylamino)pyridazin-3-yl)-6-(isopropylamino)nicotinamide]
> 100 nM	CC(=O)c1c(C)c2cnc(Nc3ccc(N4CCN(C5CN(C(=O)C6CC7(CC(Nc8nc(NC(C)C)ccc8C(=O)Nc8ccc(N(C)C)nn8)C7)C6)C5)CC4)cn3)nc2n(C2CCCC2)c1=O (centres unmarked) [CPD-401, 2-((6-(3-(4-(6-((6-acetyl-8-cyclopentyl-5-methyl-7-oxo-7,8-dihydropyrido[2,3-d]pyrimidin-2-yl)amino)pyridin-3-yl)piperazin-1-yl)azetidine-1-carbonyl)spiro[3.3]heptan-2-yl)amino)-N-(6-(dimethylamino)pyridazin-3-yl)-6-(isopropylamino)nicotinamide]
50 to 100 nM	CC(=O)c1c(C)c2cnc(Nc3ccc(N4CCN(C5CCN(C(=O)[C@H]6CC[C@@H](Nc7nc(NC(C)C)ccc7C(=O)Nc7ccc(N(C)C)nn7)C6)C5)CC4)cn3)nc2n(C2CCCC2)c1=O (stereo partly drawn) [CPD-403, 2-(((1R,3S)-3-(3-(4-(6-((6-acetyl-8-cyclopentyl-5-methyl-7-oxo-7,8-dihydropyrido[2,3-d]pyrimidin-2-yl)amino)pyridin-3-yl)piperazin-1-yl)pyrrolidine-1-carbonyl)cyclopentyl)amino)-N-(6-(dimethylamino)pyridazin-3-yl)-6-(isopropylamino)nicotinamide]
> 100 nM	CC(=O)c1c(C)c2cnc(N(C)c3ccc(N4CCN(CCC(=O)N5CC6(CC(Nc7nc(NC(C)C)ccc7C(=O)Nc7cc(C)n(C)n7)C6)C5)CC4)cn3)nc2n(C2CCCC2)c1=O [CPD-404, 2-((2-(3-(4-(6-((6-acetyl-8-cyclopentyl-5-methyl-7-oxo-7,8-dihydropyrido[2,3-d]pyrimidin-2-yl)(methyl)amino)pyridin-3-yl)piperazin-1-yl)propanoyl)-2-azaspiro[3.3]heptan-6-yl)amino)-N-(1,5-dimethyl-1H-pyrazol-3-yl)-6-(isopropylamino)nicotinamide]
> 100 nM	[2H]C([2H])([2H])Nc1ccc(C(=O)Nc2cn(C)c(C3CC3)n2)c(NC2CC3(CC(NC(=O)C(C)N4CCN(c5ccc(Nc6ncc7c(C)c(C(C)=O)c(=O)n(C8CCCC8)c7n6)nc5)CC4)C3)C2)n1 (centres unmarked) [CPD-405, 2-((6-(2-(4-(6-((6-acetyl-8-cyclopentyl-5-methyl-7-oxo-7,8-dihydropyrido[2,3-d]pyrimidin-2-yl)amino)pyridin-3-yl)piperazin-1-yl)propanamido)spiro[3.3]heptan-2-yl)amino)-N-(2-cyclopropyl-1-methyl-1H-imidazol-4-yl)-6-((methyl-d3)amino)nicotinamide]
< 50 nM	CC(=O)c1c(C)c2cnc(Nc3ccc(N4CCN(C(C)C(=O)NC5CC6(C5)CC(Nc5nc(NC(C)C)ccc5C(=O)Nc5ccc(N(C)C)nn5)C6)CC4)cn3)nc2n(C2CCCC2)c1=O (centres unmarked) [CPD-406, 2-((6-(2-(4-(6-((6-acetyl-8-cyclopentyl-5-methyl-7-oxo-7,8-dihydropyrido[2,3-d]pyrimidin-2-yl)amino)pyridin-3-yl)piperazin-1-yl)propanamido)spiro[3.3]heptan-2-yl)amino)-N-(6-(dimethylamino)pyridazin-3-yl)-6-(isopropylamino)nicotinamide]
< 50 nM	CC(=O)c1c(C)c2cnc(Nc3ccc(N4CCC5(CC4)CC5C(=O)N4CCC(Nc5nc(NC(C)C)ccc5C(=O)Nc5cc(C)n(C)n5)CC4)cn3)nc2n(C2CCCC2)c1=O (centres unmarked) [CPD-408, 2-((1-(6-(6-((6-acetyl-8-cyclopentyl-5-methyl-7-oxo-7,8-dihydropyrido[2,3-d]pyrimidin-2-yl)amino)pyridin-3-yl)-6-azaspiro[2.5]octane-1-carbonyl)piperidin-4-yl)amino)-N-(1,5-dimethyl-1H-pyrazol-3-yl)-6-(isopropylamino)nicotinamide]
< 50 nM	CC(=O)c1c(C)c2cnc(Nc3ccc(N4CCC5(CC4)CC5C(=O)N4CCC(Nc5nc(NC(C)C)ccc5C(=O)Nc5cn(C)c(C6CC6)n5)CC4)cn3)nc2n(C2CCCC2)c1=O (centres unmarked) [CPD-409, 2-((1-(6-(6-((6-acetyl-8-cyclopentyl-5-methyl-7-oxo-7,8-dihydropyrido[2,3-d]pyrimidin-2-yl)amino)pyridin-3-yl)-6-azaspiro[2.5]octane-1-carbonyl)piperidin-4-yl)amino)-N-(2-cyclopropyl-1-menthyl-1H-imidazol-4-yl)-6-(isopropylamino)nicotinamide]
> 100 nM	CC(=O)c1c(C)c2cnc(Nc3ccc(N4CCN(CC(=O)NC(C)(C)C5CC(Nc6nc(NC(C)C)ccc6C(=O)Nc6cc(C)on6)C5)CC4)cn3)nc2n(C2CCCC2)c1=O (centres unmarked) [CPD-410, 2-((3-(2-(2-(4-(6-((6-acetyl-8-cyclopentyl-5-methyl-7-oxo-7,8-dihydropyrido[2,3-d]pyrimidin-2-yl)amino)pyridin-3-yl)piperazin-1-yl)acetamido)propan-2-yl)cyclobutyl)amino)-6-(isopropylamino)-N-(5-methylisoxazol-3-yl)nicotinamide]
> 100 nM	CC(=O)c1c(C)c2cnc(Nc3ccc(N4CCC5(CC4)CC5C(=O)N4CC5(CC(Nc6nc(NC(C)C)ccc6C(=O)Nc6cn(C)c(C7CC7)n6)C5)C4)cn3)nc2n(C2CCCC2)c1=O (centres unmarked) [CPD-412, 2-((2-(6-(6-((6-acetyl-8-cyclopentyl-5-methyl-7-oxo-7,8-dihydropyrido[2,3-d]pyrimidin-2-yl)amino)pyridin-3-yl)-6-azaspiro[2.5]octane-1-carbonyl)-2-azaspiro[3.3]heptan-6-yl)amino)-N-(2-cyclopropyl-1-methyl-1H-imidazol-4-yl)-6-(isopropylamino)nicotinamide]
> 100 nM	CC(=O)c1c(C)c2cnc(Nc3ccc(N4CCC5(CC4)CC5C(=O)NC4CC(Nc5nc(NC(C)C)ccc5C(=O)Nc5ccc(N(C)C)nn5)C4)cn3)nc2n(C2CCCC2)c1=O (centres unmarked) [CPD-413, 6-(6-((6-acetyl-8-cyclopentyl-5-methyl-7-oxo-7,8-dihydropyrido[2,3-d]pyrimidin-2-yl)amino)pyridin-3-yl)-N-(3-((3-((6-(dimethylamino)pyridazin-3-yl)carbamoyl)-6-(isopropylamino)pyridin-2-yl)amino)cyclobutyl)-6-azaspiro[2.5]octane-1-carboxamide]
< 50 nM	CC(=O)c1c(C)c2cnc(Nc3ccc(N4CCC5(CC4)CC5C(=O)N4CC5(CC(Nc6nc(NC(C)C)ccc6C(=O)Nc6cc(C)n(C)n6)C5)C4)cn3)nc2n(C2CCCC2)c1=O (centres unmarked) [CPD-415, 2-((2-(6-(6-((6-acetyl-8-cyclopentyl-5-methyl-7-oxo-7,8-dihydropyrido[2,3-d]pyrimidin-2-yl)amino)pyridin-3-yl)-6-azaspiro[2.5]octane-1-carbonyl)-2-azaspiro[3.3]heptan-6-yl)amino)-N-(1,5-dimethyl-1H-pyrazol-3-yl)-6-(isopropylamino)nicotinamide]
> 100 nM	CNc1ccc(C(=O)Nc2ccc(N(C)C)nn2)c(NC2CCC3(CC(NC(=O)CN4CCN(c5ccc(Nc6ncc7c(C)c(C(C)=O)c(=O)n(C8CCCC8)c7n6)nc5)CC4)C3)C2)n1 (centres unmarked) [CPD-416, 2-((2-(2-(4-(6-((6-acetyl-8-cyclopentyl-5-methyl-7-oxo-7,8-dihydropyrido[2,3-d]pyrimidin-2-yl)amino)pyridin-3-yl)piperazin-1-yl)acetamido)spiro[3.4]octan-6-yl)amino)-N-(6-(dimethylamino)pyridazin-3-yl)-6-(methylamino)nicotinamide]
> 100 nM	CC(=O)c1c(C)c2cnc(Nc3ccc(N4CCC5(CC4)CC5C(=O)NC4CCC(Nc5nc(NC(C)C)ccc5C(=O)Nc5ccc(N(C)C)nn5)C4)cn3)nc2n(C2CCCC2)c1=O (centres unmarked) [CPD-417, 6-(6-((6-acetyl-8-cyclopentyl-5-methyl-7-oxo-7,8-dihydropyrido[2,3-d]pyrimidin-2-yl)amino)pyridin-3-yl)-N-(3-((3-((6-(dimethylamino)pyridazin-3-yl)carbamoyl)-6-(isopropylamino)pyridin-2-yl)amino)cyclopentyl)-6-azaspiro[2.5]octane-1-carboxamide]
